# Measurements taken from publication PMC11213733, “Computational approaches identify a transcriptomic fingerprint of drug-induced structural cardiotoxicity” (Cell Biology and Toxicology, 2024).
# Where two headings read alike, the source gives them in different places.
# Tests used:
# cardiac microtissues [1] = test: Ingenuity Pathway Analysis over-representation of differentially expressed genes (activation Z-score); format: cell-based, human; details: 48hr high; Group 2
# cardiac microtissues [2] = test: Targeted qRT-PCR of ATAD3C, CDH13, IL6, PTX3, SLC7A5, UCHL1 in cardiac microtissues; format: cell-based, human; details: Sorafenib 3.74 µM, Sunitinib 3.53 µM, Dasatinib 10.8 µM; for activity at 10.8 µM: Homo sapiens, read-out: % of control
# Procedure: The experiment was performed with three technical replicates across 1-2 independent replicates.
# [3] = ref FDA label, cited from earlier work
# cardiac microtissues [4] = test: Transcriptomic profiling (mRNA-seq) and DESeq2 differential gene expression analysis in cardiac microtissues; details: absolute log2(Fold-Change) > 1, FDR p ≤ 0.05
smiles,measurement,setting,value
Cc1nc(Nc2ncc(C(=O)Nc3c(C)cccc3Cl)s2)cc(N2CCN(CCO)CC2)n1 [Dasatinib],activation Z-score: Actin Cytoskeleton Signaling,cardiac microtissues [1],-2.887
same,activation Z-score: Actin Nucleation by ARP-WASP Complex,cardiac microtissues [1],-2.449
same,activation Z-score: Acute Phase Response Signaling,cardiac microtissues [1],-2.828
same,activation Z-score: Adrenomedullin signaling pathway,cardiac microtissues [1],-0.535
same,activation Z-score: Apelin Cardiac Fibroblast Signaling Pathway,cardiac microtissues [1],2.449
same,activation Z-score: Apelin Liver Signaling Pathway,cardiac microtissues [1],-2.449
same,activation Z-score: Aryl Hydrocarbon Receptor Signaling,cardiac microtissues [1],-2.333
same,activation Z-score: Breast Cancer Regulation by Stathmin1,cardiac microtissues [1],-3.363
same,activation Z-score: CLEAR Signaling Pathway,cardiac microtissues [1],2.5
same,activation Z-score: Cardiac Hypertrophy Signaling (Enhanced),cardiac microtissues [1],-3.889
same,activation Z-score: Colorectal Cancer Metastasis Signaling,cardiac microtissues [1],-3.5
same,activation Z-score: Cyclins and Cell Cycle Regulation,cardiac microtissues [1],1
same,activation Z-score: ERK5 Signaling,cardiac microtissues [1],-2.646
same,activation Z-score: Endothelin-1 Signaling,cardiac microtissues [1],-1.604
same,activation Z-score: G-Protein Coupled Receptor Signaling,cardiac microtissues [1],-1.571
same,activation Z-score: GP6 Signaling Pathway,cardiac microtissues [1],-3.742
same,activation Z-score: Glioblastoma Multiforme Signaling,cardiac microtissues [1],-2.111
same,activation Z-score: HGF Signaling,cardiac microtissues [1],-1.89
same,activation Z-score: HIF1Î± Signaling,cardiac microtissues [1],-2.673
same,activation Z-score: HMGB1 Signaling,cardiac microtissues [1],-3.3
same,activation Z-score: Hepatic Fibrosis Signaling Pathway,cardiac microtissues [1],-6.008
same,activation Z-score: IL-6 Signaling,cardiac microtissues [1],-3.3
same,activation Z-score: IL-8 Signaling,cardiac microtissues [1],-2.84
same,activation Z-score: IL-13 Signaling Pathway,cardiac microtissues [1],-1.897
same,activation Z-score: IL-15 Production,cardiac microtissues [1],-1.897
same,activation Z-score: ILK Signaling,cardiac microtissues [1],-3.207
same,activation Z-score: Immunogenic Cell Death Signaling Pathway,cardiac microtissues [1],-2.828
same,activation Z-score: Integrin Signaling,cardiac microtissues [1],-3.357
same,activation Z-score: Intrinsic Prothrombin Activation Pathway,cardiac microtissues [1],-2.236
same,activation Z-score: LXR/RXR Activation,cardiac microtissues [1],3.3
same,activation Z-score: Leukocyte Extravasation Signaling,cardiac microtissues [1],-1.698
same,activation Z-score: MIF Regulation of Innate Immunity,cardiac microtissues [1],-1.633
same,activation Z-score: MYC Mediated Apoptosis Signaling,cardiac microtissues [1],-2.449
same,activation Z-score: Macrophage Alternative Activation Signaling Pathway,cardiac microtissues [1],-0.728
same,activation Z-score: Oncostatin M Signaling,cardiac microtissues [1],-1.342
same,activation Z-score: Osteoarthritis Pathway,cardiac microtissues [1],-2.985
same,activation Z-score: Oxytocin Signaling Pathway,cardiac microtissues [1],-2.4
same,activation Z-score: PAK Signaling,cardiac microtissues [1],-2.449
same,activation Z-score: PPAR Signaling,cardiac microtissues [1],3.742
same,activation Z-score: Production of Nitric Oxide and Reactive Oxygen Species in Macrophages,cardiac microtissues [1],-2.646
same,activation Z-score: Prostanoid Biosynthesis,cardiac microtissues [1],-1
same,activation Z-score: Pulmonary Fibrosis Idiopathic Signaling Pathway,cardiac microtissues [1],-5.947
same,activation Z-score: Pulmonary Healing Signaling Pathway,cardiac microtissues [1],-2.668
same,activation Z-score: RAC Signaling,cardiac microtissues [1],-2.449
same,activation Z-score: RHOGDI Signaling,cardiac microtissues [1],2.309
same,activation Z-score: Regulation Of The Epithelial Mesenchymal Transition By Growth Factors Pathway,cardiac microtissues [1],-3.962
same,activation Z-score: Regulation of Cellular Mechanics by Calpain Protease,cardiac microtissues [1],-2
same,activation Z-score: Regulation of eIF4 and p70S6K Signaling,cardiac microtissues [1],-2
same,activation Z-score: Renin-Angiotensin Signaling,cardiac microtissues [1],-2
same,activation Z-score: Ribonucleotide Reductase Signaling Pathway,cardiac microtissues [1],-2.496
same,activation Z-score: Role of IL-17F in Allergic Inflammatory Airway Diseases,cardiac microtissues [1],-2
same,activation Z-score: Role of JAK family kinases in IL-6-type Cytokine Signaling,cardiac microtissues [1],-2.673
same,activation Z-score: Role of NFAT in Cardiac Hypertrophy,cardiac microtissues [1],-2.496
same,activation Z-score: STAT3 Pathway,cardiac microtissues [1],-2.496
same,activation Z-score: Senescence Pathway,cardiac microtissues [1],-2
same,activation Z-score: Signaling by Rho Family GTPases,cardiac microtissues [1],-3.357
same,activation Z-score: Superpathway of Cholesterol Biosynthesis,cardiac microtissues [1],2
same,activation Z-score: TREM1 Signaling,cardiac microtissues [1],-2.714
same,activation Z-score: Type II Diabetes Mellitus Signaling,cardiac microtissues [1],-2
same,activation Z-score: White Adipose Tissue Browning Pathway,cardiac microtissues [1],-2.111
same,activation Z-score: Wound Healing Signaling Pathway,cardiac microtissues [1],-5
same,activity at 10.8 µM,"cardiac microtissues [2]; gene ATAD3C, Run 1",75.7%
same,activity at 10.8 µM,"cardiac microtissues [2]; gene CDH13, Run 1",46.8%
same,activity at 10.8 µM,"cardiac microtissues [2]; gene CDH13, Run 2",19.7%
same,activity at 10.8 µM,"cardiac microtissues [2]; gene IL6, Run 1",10.1%
same,activity at 10.8 µM,"cardiac microtissues [2]; gene PTX3, Run 1",18.7%
same,activity at 10.8 µM,"cardiac microtissues [2]; gene PTX3, Run 2",4.94%
same,activity at 10.8 µM,"cardiac microtissues [2]; gene SLC7A5, Run 1",52.1%
same,activity at 10.8 µM,"cardiac microtissues [2]; gene SLC7A5, Run 2",26%
same,activity at 10.8 µM,"cardiac microtissues [2]; gene UCHL1, Run 1",42.1%
same,activity at 10.8 µM,"cardiac microtissues [2]; gene UCHL1, Run 2",21.3%
same,"2^-ΔΔCt of Individual reps, Treated 1","cardiac microtissues [2]; gene ATAD3C, Run 1",0.8222
same,"2^-ΔΔCt of Individual reps, Treated 2","cardiac microtissues [2]; gene ATAD3C, Run 1",0.6233
same,"2^-ΔΔCt of Individual reps, Treated 3","cardiac microtissues [2]; gene ATAD3C, Run 1",0.828
same,"Average 2^-ΔΔCt, Treated","cardiac microtissues [2]; gene ATAD3C, Run 1",0.7578
same,"2^-ΔΔCt of Individual reps, Treated 1","cardiac microtissues [2]; gene CDH13, Run 1",0.4709
same,"2^-ΔΔCt of Individual reps, Treated 2","cardiac microtissues [2]; gene CDH13, Run 1",0.4361
same,"2^-ΔΔCt of Individual reps, Treated 3","cardiac microtissues [2]; gene CDH13, Run 1",0.5098
same,"Average 2^-ΔΔCt, Treated","cardiac microtissues [2]; gene CDH13, Run 1",0.4723
same,"2^-ΔΔCt of Individual reps, Treated 1","cardiac microtissues [2]; gene CDH13, Run 2",0.2109
same,"2^-ΔΔCt of Individual reps, Treated 2","cardiac microtissues [2]; gene CDH13, Run 2",0.2308
same,"2^-ΔΔCt of Individual reps, Treated 3","cardiac microtissues [2]; gene CDH13, Run 2",0.1575
same,"Average 2^-ΔΔCt, Treated","cardiac microtissues [2]; gene CDH13, Run 2",0.1997
same,"2^-ΔΔCt of Individual reps, Treated 1","cardiac microtissues [2]; gene IL6, Run 1",0.1388
same,"2^-ΔΔCt of Individual reps, Treated 2","cardiac microtissues [2]; gene IL6, Run 1",0.1078
same,"2^-ΔΔCt of Individual reps, Treated 3","cardiac microtissues [2]; gene IL6, Run 1",0.05876
same,"Average 2^-ΔΔCt, Treated","cardiac microtissues [2]; gene IL6, Run 1",0.1018
same,"2^-ΔΔCt of Individual reps, Treated 1","cardiac microtissues [2]; gene PTX3, Run 1",0.2236
same,"2^-ΔΔCt of Individual reps, Treated 2","cardiac microtissues [2]; gene PTX3, Run 1",0.2024
same,"2^-ΔΔCt of Individual reps, Treated 3","cardiac microtissues [2]; gene PTX3, Run 1",0.143
same,"Average 2^-ΔΔCt, Treated","cardiac microtissues [2]; gene PTX3, Run 1",0.1897
same,"2^-ΔΔCt of Individual reps, Treated 1","cardiac microtissues [2]; gene PTX3, Run 2",0.06731
same,"2^-ΔΔCt of Individual reps, Treated 2","cardiac microtissues [2]; gene PTX3, Run 2",0.04708
same,"2^-ΔΔCt of Individual reps, Treated 3","cardiac microtissues [2]; gene PTX3, Run 2",0.03383
same,"Average 2^-ΔΔCt, Treated","cardiac microtissues [2]; gene PTX3, Run 2",0.04941
same,"2^-ΔΔCt of Individual reps, Treated 1","cardiac microtissues [2]; gene SLC7A5, Run 1",0.5311
same,"2^-ΔΔCt of Individual reps, Treated 2","cardiac microtissues [2]; gene SLC7A5, Run 1",0.5414
same,"2^-ΔΔCt of Individual reps, Treated 3","cardiac microtissues [2]; gene SLC7A5, Run 1",0.5079
same,"Average 2^-ΔΔCt, Treated","cardiac microtissues [2]; gene SLC7A5, Run 1",0.5268
same,"2^-ΔΔCt of Individual reps, Treated 1","cardiac microtissues [2]; gene SLC7A5, Run 2",0.3467
same,"2^-ΔΔCt of Individual reps, Treated 2","cardiac microtissues [2]; gene SLC7A5, Run 2",0.2554
same,"2^-ΔΔCt of Individual reps, Treated 3","cardiac microtissues [2]; gene SLC7A5, Run 2",0.2489
same,"Average 2^-ΔΔCt, Treated","cardiac microtissues [2]; gene SLC7A5, Run 2",0.2837
same,"2^-ΔΔCt of Individual reps, Treated 1","cardiac microtissues [2]; gene UCHL1, Run 1",0.4041
same,"2^-ΔΔCt of Individual reps, Treated 2","cardiac microtissues [2]; gene UCHL1, Run 1",0.4271
same,"2^-ΔΔCt of Individual reps, Treated 3","cardiac microtissues [2]; gene UCHL1, Run 1",0.4398
same,"Average 2^-ΔΔCt, Treated","cardiac microtissues [2]; gene UCHL1, Run 1",0.4237
same,"2^-ΔΔCt of Individual reps, Treated 1","cardiac microtissues [2]; gene UCHL1, Run 2",0.202
same,"2^-ΔΔCt of Individual reps, Treated 2","cardiac microtissues [2]; gene UCHL1, Run 2",0.2889
same,"2^-ΔΔCt of Individual reps, Treated 3","cardiac microtissues [2]; gene UCHL1, Run 2",0.1891
same,"Average 2^-ΔΔCt, Treated","cardiac microtissues [2]; gene UCHL1, Run 2",0.2267
same,Structural cardiotoxin?,[3]; FDA label references heart failure or a decrease in left ventricular ejection fraction,Y
same,Functional cardiotoxin?,[3]; compound annotation,Y
same,"number of significant differentially expressed genes, 6hr high","cardiac microtissues [4]; 6 hr, high concentration",108
same,"number of significant differentially expressed genes, 6hr low","cardiac microtissues [4]; 6 hr, low concentration",48
same,"number of significant differentially expressed genes, 48hr high","cardiac microtissues [4]; 48 hr, high concentration",820
same,"number of significant differentially expressed genes, 48hr low","cardiac microtissues [4]; 48 hr, low concentration",637
same,"number of significant differentially expressed genes, 72hr high","cardiac microtissues [4]; 72 hr, high concentration",814
same,"number of significant differentially expressed genes, 72hr low","cardiac microtissues [4]; 72 hr, low concentration",616
